Reference: US20240159750A1, “METHODS FOR DIAGNOSIS AND TREATMENT OF COVID-19” (priority 2021, published 2024)

How the values were obtained:
[1] = system: hospitalized COVID-19 patients; settings: interim report, WHO solidarity trial; cited from earlier work
C2 and PC cells = type: cell-based, rat; settings: serum-starved C2 cells (TYMP-overexpressing VSMC)

Row | Compound | effect on hospitalized COVID-19 patients [1] | NF-κB activation (p65 phosphorylation at T254) (C2 and PC cells)
1 | CCN(CCO)CCCC(C)Nc1ccnc2cc(Cl)ccc12 (stereo not drawn) [hydroxychloroquine] | little or no effect | –
2 | Pam3CSK4 | – | dramatically increased
3 | Cc1cccc(C)c1OCC(=O)N[C@@H](Cc1ccccc1)[C@@H](O)C[C@H](Cc1ccccc1)NC(=O)[C@H](C(C)C)N1CCCNC1=O [lopinavir] | little or no effect | –
